Paper PMC7095208 (Nature, 2014)
Like-named read-outs stand apart in the source and are kept apart here.

Key:
HCV NS5B RNA polymerase = HCV NS5B RNA polymerase (Hepatitis C virus genotype 1b, UniProt P26663); assay type: biochemical
[1] = rat, in vivo, im
filoviruses [2] = details: in vivo; cited from earlier work
filoviruses [3] = details: cited from earlier work
in vitro [4] = details: dog, pH 1
Marburg virus - Musoke = assay type: cell-based
MARV-Musoke = details: guinea pig, in vivo
MARV Angola = assay: organism not typed; assay type: cell-based, Marburg virus; details: HeLa
HeLa cells = details: human
in vivo [5] = details: cynomolgus monkey, im
in vitro [6] = details: human
SUDV Boniface = assay: microbe, parasite or virus in culture; assay type: cell-based; details: Sudan ebolavirus, HeLa
MARV-Angola = details: guinea pig, in vivo
MARV Musoke = assay: organism not typed; assay type: cell-based, Marburg virus; details: HeLa
MARV Ci67 = assay: organism not typed; assay type: cell-based, Marburg virus; details: HeLa
JUNV Romero = assay: organism not typed; assay type: cell-based, Junín virus; details: HeLa
in vitro [7] = details: human, s9, half-life (t1/2)
[8] = test system: EBOV minigenome RNA replicon; assay type: cell-based, Ebola virus
hERG ion channel = hERG ion channel (Homo sapiens, UniProt Q12809); assay: hERG ion channel current; assay type: biochemical; details: 30 µM; data not shown
hERG ion channel, sequence (Q12809 whole entry): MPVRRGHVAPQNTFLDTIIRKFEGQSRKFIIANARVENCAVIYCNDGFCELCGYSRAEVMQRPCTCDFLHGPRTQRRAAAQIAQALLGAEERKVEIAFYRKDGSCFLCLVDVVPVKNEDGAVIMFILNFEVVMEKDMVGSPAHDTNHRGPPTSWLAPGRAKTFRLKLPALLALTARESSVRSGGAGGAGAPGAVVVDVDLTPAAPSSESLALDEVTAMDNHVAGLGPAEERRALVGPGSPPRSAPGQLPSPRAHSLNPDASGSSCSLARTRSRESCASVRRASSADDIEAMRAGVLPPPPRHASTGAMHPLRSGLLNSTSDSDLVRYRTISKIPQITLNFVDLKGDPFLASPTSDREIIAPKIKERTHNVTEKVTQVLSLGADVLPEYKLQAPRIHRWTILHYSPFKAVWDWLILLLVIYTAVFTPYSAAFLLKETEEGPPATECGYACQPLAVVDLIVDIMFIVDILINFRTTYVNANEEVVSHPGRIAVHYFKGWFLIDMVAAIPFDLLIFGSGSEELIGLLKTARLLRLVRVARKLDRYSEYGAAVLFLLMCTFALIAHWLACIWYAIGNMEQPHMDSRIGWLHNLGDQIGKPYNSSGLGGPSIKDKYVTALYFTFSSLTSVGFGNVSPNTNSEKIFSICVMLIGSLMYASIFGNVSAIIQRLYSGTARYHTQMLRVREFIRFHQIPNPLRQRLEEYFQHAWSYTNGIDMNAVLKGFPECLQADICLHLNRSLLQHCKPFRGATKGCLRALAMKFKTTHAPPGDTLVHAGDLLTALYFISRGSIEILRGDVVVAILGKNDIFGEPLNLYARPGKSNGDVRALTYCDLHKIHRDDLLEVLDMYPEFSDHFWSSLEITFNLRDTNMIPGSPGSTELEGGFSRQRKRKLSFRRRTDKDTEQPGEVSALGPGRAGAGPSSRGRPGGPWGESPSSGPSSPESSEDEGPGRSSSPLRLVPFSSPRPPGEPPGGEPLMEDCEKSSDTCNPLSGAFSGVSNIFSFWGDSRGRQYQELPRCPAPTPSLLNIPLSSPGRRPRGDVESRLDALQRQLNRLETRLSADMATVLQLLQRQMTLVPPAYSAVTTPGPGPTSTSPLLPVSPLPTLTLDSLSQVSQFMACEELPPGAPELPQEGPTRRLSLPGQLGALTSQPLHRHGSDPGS

EBOV Kikwit = assay: microbe, parasite or virus in culture; assay type: cell-based, Ebola virus; details: Zaire ebolavirus, HeLa
RVFV ZH5018 = assay: microbe, parasite or virus in culture; assay type: cell-based; details: Rift Valley fever virus, HeLa
human lymphocytes = details: 787 µM
in vivo [9] = details: mouse, iv
[10] = test system: Rift Valley fever virus (ZH501); details: mouse, in vivo
in vivo [11] = details: Sprague-Dawley, rat

HCV NS5B RNA polymerase, sequence (P26663 2420-2989 limits assumed): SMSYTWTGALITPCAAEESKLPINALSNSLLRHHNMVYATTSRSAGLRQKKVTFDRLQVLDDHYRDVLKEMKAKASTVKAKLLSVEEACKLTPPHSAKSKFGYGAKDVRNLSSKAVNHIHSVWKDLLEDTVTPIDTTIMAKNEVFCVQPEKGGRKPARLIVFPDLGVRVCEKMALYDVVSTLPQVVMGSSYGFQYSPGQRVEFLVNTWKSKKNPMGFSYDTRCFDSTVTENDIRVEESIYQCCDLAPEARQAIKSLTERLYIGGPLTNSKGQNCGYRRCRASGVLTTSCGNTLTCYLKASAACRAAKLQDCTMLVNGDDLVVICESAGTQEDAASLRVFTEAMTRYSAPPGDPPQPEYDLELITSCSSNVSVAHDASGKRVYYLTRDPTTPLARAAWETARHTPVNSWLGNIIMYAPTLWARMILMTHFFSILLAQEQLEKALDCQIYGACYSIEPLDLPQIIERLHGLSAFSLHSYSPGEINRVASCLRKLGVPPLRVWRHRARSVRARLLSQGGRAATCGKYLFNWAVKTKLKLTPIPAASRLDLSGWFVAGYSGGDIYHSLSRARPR

## Nc1ncnc2c([C@@H]3N[C@H](COP(=O)(O)OP(=O)(O)OP(=O)(O)O)[C@@H](O)[C@H]3O)c[nH]c12 [BCX4430-TP]
HCV NS5B RNA polymerase
  RNA chain synthesis by HCV RNA polymerase: induces premature termination
[1]
  half-life in the liver: 6.2 h

## NC(=O)c1nc(F)c[nH]c1=O [T-705, favipiravir]
Filoviruses [2]
  protection against filoviruses in rodents: high-degree of protection

## NC(=O)c1ncn([C@@H]2O[C@H](CO)[C@@H](O)[C@H]2O)n1 [ribavirin]
Filoviruses [3]
  activity against filoviruses: not active

## Nc1nccc2c1ncn2C1C=C(CO)C(O)C1O (stereo not shown) [c^3-Npc A, 3-deazaneplanocin A]
Filoviruses [2]
  protection against filoviruses in rodents: high-degree of protection

## Nc1ncnc2c([C@@H]3N[C@H](CO)[C@@H](O)[C@H]3O)c[nH]c12 [BCX4430, (2S,3S,4R,5R)-2-(4-amino-5H-pyrrolo[3,2-d]pyrimidin-7-yl)-5-(hydroxymethyl)pyrrolidine-3,4-diol]
MARV (Musoke variant); cynomolgus monkey, in vivo
  animals surviving: 83%
  haemorrhagic disease manifestations (PT, aPTT, serum AST, bilirubin) vs vehicle: ameliorated
  serum MARV burden: significantly and substantially reduced
  tolerability: well tolerated
MARV (Musoke variant); n = 6
  animals surviving: All animals
In vitro [4]
  CC50: > 296 µM
Marburg virus - Musoke
  production of infectious MARV virus: no detectable infectious MARV virus
MARV-Musoke
  post-exposure protection: significant post-exposure protection
MARV Angola
  EC50: 5 µM
  EC90: 12.3 µM
HeLa cells
  CC50: 242 µM
In vivo [5]
  half-life: < 5 min
In vitro [6]
  CC50: > 296 µM
SUDV Boniface
  EC50: 3.4 µM
  EC90: 10.3 µM
MARV-Angola
  post-exposure protection: significant post-exposure protection
  protection: protected
MARV Musoke
  EC50: 4.4 µM
  EC90: 10.5 µM
MARV Ci67
  EC50: 6.7 µM
  EC90: 16.1 µM
JUNV Romero
  EC50: 42.2 µM
  EC90: > 100 µM
In vitro [7]
  half-life: > 54 min
[8]
  GFP expression in EBOV minigenome replicon assay: reduces expression of green fluorescent protein
hERG ion channel
  inhibition of hERG ion channel current: did not inhibit
EBOV Kikwit
  EC50: 11.8 µM
  EC90: 25.4 µM
RVFV ZH5018
  EC50: 41.6 µM
  EC90: 98 µM
Human lymphocytes
  chromosomal aberrations: no detectable chromosomal aberrations
Human RNA or DNA
  incorporation of BCX4430-MP into human RNA or DNA: no evidence of BCX4430-MP incorporation
In vivo [9]
  half-life: < 5 min
[10]
  protection against lethal Rift Valley fever virus challenge: protected
In vivo [11]
  half-life: < 5 min
